Like-named read-outs stand apart in the source and are kept apart here.

The test system of this assay is HCV pseudoparticles (genotype 1a HCV E1 and E2 envelope, H77C isolate). The assay is described as follows: microbe, parasite or virus in culture. It counts as cell-based. As to conditions: Hepatitis C virus.
[1] abbreviates: Huh-7, 48 h, read-out: Activity (EC50 class), HCV pseudoparticle infection of Huh7 cells, luciferase 2 days after infection, EC50 expressed as class A/B.
Where [2] appears, read: Huh-7, read-out: Activity (EC50 class), HCV pseudoparticles (genotype 1a, H77C) in Huh7 cells, EC50 expressed as class A/B.
[3] abbreviates: Huh-7, 48 h, read-out: Activity (EC50 class), HCV pseudoparticles, Huh7 cells, luciferase 2 days after infection, average of duplicates.

By EC50 is commonly meant the concentration that produces a half-maximal response. In the case of `COC(=O)[C@H](CNC(=O)C(=O)NCC1OCCc2ccccc21)NC(=O)c1ccc(Nc2nc(NC3(c4ccc(Cl)cc4)CC3)nc(OCC(F)(F)F)n2)cc1` (some centres unmarked) [Compound 1297], the EC50 under setting [1] lay in the range of 0.01 to 10 nM.
Same read-out and setting: to `COC(=O)[C@H](CCNC(=O)C(=O)NC1CCN(C(=O)OC(C)(C)C)CC1)NC(=O)c1ccc(Nc2nc(NC3(c4ccc(Cl)cc4)CC3)nc(OCC(F)(F)F)n2)cc1` [Compound 1101] belongs 0.01 to 10 nM; to `CC(C)OC(=O)[C@H](CNC(=O)C(=O)N(C)C)NC(=O)c1ccc(Nc2nc(NC3(c4ccc(Cl)cc4)CC3)nc(OCC(F)(F)F)n2)cc1` [Compound 1021, (S)-isopropyl 2-(4-(4-(1-(4-chlorophenyl)cyclopropylamino)-6-(2,2,2-trifluoroethoxy)-1,3,5-triazin-2-ylamino)benzamido)-3-(2-(dimethylamino)-2-oxoacetamido)propanoate], 0.01 to 10 nM.
As to `CN(CCCNC(=O)c1ccc(Nc2nc(NC3(c4ccc(Cl)cc4)CC3)nc(OCC(F)(F)F)n2)cc1)C(=O)C(=O)Nc1cc(F)cc(F)c1` [Compound 3451], the EC50 under setting [2] lay in the range of 0.01 to 10 nM.
Still for that read-out and setting: as for `COc1cc(NC(=O)C(=O)NCC(C)(C)CNC(=O)c2ccc(Nc3nc(NC4(c5ccc(Cl)cc5)CC4)nc(OCC(F)(F)F)n3)cc2)ccc1F` [Compound 3069], the figure is 0.01 to 10 nM.
As to `CC(C)(CNC(=O)C(=O)Nc1cccc(F)c1F)CNC(=O)c1ccc(Nc2nc(NC3(c4ccc(Cl)cc4)CC3)nc(OCC(F)(F)F)n2)cc1` [Compound 3261], the EC50 (Huh-7, 48 h, HCV pseudoparticles (genotype 1a, H77C) in Huh7 cells, average of duplicate, luciferase 2 days after infection) is 0.072 nM and the EC50 under setting [2] was in the range of 0.01 to 10 nM.
For the compound `CC(C)(CNC(=O)C(=O)NCc1ccc(F)cc1F)CNC(=O)c1ccc(Nc2nc(NC3(c4ccc(Cl)cc4)CC3)nc(OCC(F)(F)F)n2)cc1` [Compound 1034, N1-(3-(4-(4-(1-(4-chlorophenyl)cyclopropylamino)-6-(2,2,2-trifluoroethoxy)-1,3,5-triazin-2-ylamino)benzamido)-2,2-dimethylpropyl)-N2-(2,4-difluorobenzyl)oxalamide], under setting [1], the EC50 lay in the range of 0.01 to 10 nM.
The same measure, in the same setting: to `COC(=O)[C@H](CNC(=O)C(=O)NC1CCC(C(C)(C)C)CC1)NC(=O)c1ccc(Nc2nc(NC3(c4ccc(Cl)cc4)CC3)nc(OCC(F)(F)F)n2)cc1` (some centres unmarked) [Compound 1062] belongs 0.01 to 10 nM; to `O=C(NCC[C@H](NC(=O)c1ccc(Nc2nc(NC3(c4ccc(Cl)cc4)CC3)nc(OCC(F)(F)F)n2)cc1)C(=O)O)C(=O)NC(CCO)C1CC1` (some centres unmarked) [Compound 1439], 0.01 to 10 nM.
The same measure, in the same setting: to `COC(=O)[C@H](CCNC(=O)C(=O)Nc1cc(F)c(F)cc1F)NC(=O)c1ccc(Nc2nc(NC3(c4ccc(Cl)cc4)CC3)nc(OCC(F)(F)F)n2)cc1` [Compound 1510] belongs 0.01 to 10 nM.
In the case of `Cc1nc(-c2cccc(NC(=O)C(=O)NC[C@H](NC(=O)c3ccc(Nc4nc(NC5(c6ccc(Cl)cc6)CC5)nc(OCC(F)(F)F)n4)cc3)C(=O)Cl)c2)no1` [Compound 3785], under setting [3], the EC50 is 0.01 to 10 nM.
Consider `CCC1CCC(NC(=O)C(=O)NC[C@H](NC(=O)c2ccc(Nc3nc(NC4(c5ccc(Cl)cc5)CC4)nc(OCC(F)(F)F)n3)cc2)C(=O)OC)CC1` (some centres unmarked) [Compound 1065], for which the EC50 reads like this: (Huh-7, 48 h, HCV pseudoparticle infection of Huh7 cells, luciferase 2 days after infection, average of duplicates) 0.59 nM; under setting [1], 0.01 to 10 nM.
Consider `O=C(NC[C@H](NC(=O)c1ccc(Nc2nc(NC3(c4ccc(Cl)cc4)CC3)nc(OCC(F)(F)F)n2)cc1)C(=O)O)C(=O)Nc1cccc(CN2CCCC2)c1` [Compound 3778], for which the EC50 under setting [3] lay in the range of 0.01 to 10 nM.
In the case of `CCOC(=O)[C@H](CNC(=O)C(=O)NC)NC(=O)c1ccc(Nc2nc(NC3(c4ccc(Cl)cc4)CC3)nc(OCC(F)(F)F)n2)cc1` [Compound 1024, (S)-ethyl 2-(4-(4-(1-(4-chlorophenyl)cyclopropylamino)-6-(2,2,2-trifluoroethoxy)-1,3,5-triazin-2-ylamino)benzamido)-3-(2-(methylamino)-2-oxoacetamido)propanoate], the EC50 under setting [1] is 0.01 to 10 nM.
Still for that read-out and setting: to `O=C(NCC1CCCc2ccccc21)C(=O)NC[C@@H](NC(=O)c1ccc(Nc2nc(NC3(c4ccc(Cl)cc4)CC3)nc(OCC(F)(F)F)n2)cc1)C(=O)O` (some centres unmarked) [Compound 1410] belongs 0.01 to 10 nM.

The values are drawn from US8916702B2 (priority 2012, dated 2014).
